In one series the target is human D3 receptor (Homo sapiens (Human), UniProt P35462). Description: Radioligand binding ([3H]-spiperone) to cloned receptors expressed in HEK-293 EBNA cells. The conditions noted are these: HEK293 EBNA cell membranes expressing human D3. In short, it runs like this:
(§1)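 Membranes from transiently transfected HEK293 EBNA cells incubated 1 h at RT with ten compound concentrations (10 μM–0.1 nM). D2/D3: [3H]-spiperone ~0.7/0.5 nM, Tris–NaCl–Mg/Ca buffer pH 7.4; 5-HT2A: [3H]-ketanserin 1.1 nM, Tris–MgCl2–EGTA pH 7.4.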

In the next series the target is human D2 receptor (Homo sapiens (Human), UniProt P14416). The series is described as above. Conditions: HEK293 EBNA cell membranes expressing human D2. In outline: as §1
Another series concerns the target human 5-HT2A receptor (Homo sapiens (Human), UniProt P28223). As to the kind of experiment: Radioligand binding ([3H]-ketanserin) to cloned receptors expressed in HEK-293 EBNA cells. Conditions: HEK293 EBNA cell membranes expressing human 5-HT2A. In outline: as §1

The values below come from patent publication US8877778B2, “Benzofurane compounds” (Hoffmann-La Roche Inc., priority 2010, dated 2014).

Chain of human D3 receptor (P35462 whole entry): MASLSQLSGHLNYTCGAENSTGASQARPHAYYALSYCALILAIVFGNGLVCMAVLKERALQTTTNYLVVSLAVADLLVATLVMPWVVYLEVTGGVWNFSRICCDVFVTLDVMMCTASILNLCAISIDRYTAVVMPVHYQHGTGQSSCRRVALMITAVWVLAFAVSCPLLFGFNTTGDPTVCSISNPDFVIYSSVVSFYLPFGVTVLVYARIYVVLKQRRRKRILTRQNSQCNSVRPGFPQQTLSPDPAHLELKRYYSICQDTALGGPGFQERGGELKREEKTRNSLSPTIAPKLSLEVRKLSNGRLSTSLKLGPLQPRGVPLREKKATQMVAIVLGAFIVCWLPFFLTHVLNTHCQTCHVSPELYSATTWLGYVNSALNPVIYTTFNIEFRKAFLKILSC
Chain of human 5-HT2A receptor (P28223 whole entry): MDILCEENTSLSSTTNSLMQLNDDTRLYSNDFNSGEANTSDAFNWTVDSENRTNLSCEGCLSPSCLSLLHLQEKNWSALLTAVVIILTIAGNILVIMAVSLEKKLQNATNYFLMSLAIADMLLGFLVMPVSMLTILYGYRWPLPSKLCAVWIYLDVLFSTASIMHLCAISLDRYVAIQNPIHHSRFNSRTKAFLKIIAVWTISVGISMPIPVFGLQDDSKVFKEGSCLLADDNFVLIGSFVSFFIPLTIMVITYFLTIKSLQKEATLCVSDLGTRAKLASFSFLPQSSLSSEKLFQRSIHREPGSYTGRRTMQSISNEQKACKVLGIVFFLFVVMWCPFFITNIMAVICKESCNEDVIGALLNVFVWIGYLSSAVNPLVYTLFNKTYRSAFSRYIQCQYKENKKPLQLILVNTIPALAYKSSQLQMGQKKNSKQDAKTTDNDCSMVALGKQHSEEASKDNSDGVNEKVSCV
Chain of human D2 receptor (P14416 whole entry): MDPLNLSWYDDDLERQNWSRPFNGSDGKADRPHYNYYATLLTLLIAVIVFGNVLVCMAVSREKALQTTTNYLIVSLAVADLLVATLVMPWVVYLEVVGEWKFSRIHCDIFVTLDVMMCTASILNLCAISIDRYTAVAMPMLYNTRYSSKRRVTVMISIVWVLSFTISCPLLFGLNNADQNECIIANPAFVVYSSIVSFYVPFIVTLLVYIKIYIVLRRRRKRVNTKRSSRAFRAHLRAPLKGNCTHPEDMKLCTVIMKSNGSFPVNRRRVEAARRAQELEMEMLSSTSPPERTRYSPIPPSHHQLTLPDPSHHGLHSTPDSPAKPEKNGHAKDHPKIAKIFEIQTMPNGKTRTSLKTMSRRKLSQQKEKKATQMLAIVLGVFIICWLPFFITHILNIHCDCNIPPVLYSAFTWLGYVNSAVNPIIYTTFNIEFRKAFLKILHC

In general, melting point refers to the temperature of the solid-liquid transition. In general, Ki refers to a dissociation constant, usually derived from enzyme kinetics or from competition with a known ligand. `O=C(N[C@H]1CC[C@H](CCN2CCC(c3cccc4c3CCO4)CC2)CC1)c1ccc(N2CCS(=O)(=O)CC2)cc1` [Example 77, trans-N-(4-{2-[4-(2,3-Dihydro-benzofuran-4-yl)-piperidin-1-yl]-ethyl}-cyclohexyl)-4-(1,1-dioxo-1λ6-thiomorpholin-4-yl)-benzamide] showed a melting point of 282 °C. The Ki on human D3 receptor was 0.00562 µM. The inhibitory constant (Ki) at human D2 receptor came out at 0.329 µM. For the same molecule, the inhibition constant (Ki) on human 5-HT2A receptor was found to be 0.033 µM.
In turn, `O=C(N[C@H]1CC[C@H](CCN2CCC(c3cccc4c3CCO4)CC2)CC1)c1ccc2ncccc2c1` [Example 78, Quinoline-6-carboxylic acid trans-(4-{2-[4-(2,3-dihydro-benzofuran-4-yl)-piperidin-1-yl]-ethyl}-cyclohexyl)-amide] displayed a melting point of 238 °C. In addition, at human D3 receptor, the Ki stood at 0.00435 µM. Moreover, the Ki on human D2 receptor was 3.25 µM. Further, at human 5-HT2A receptor, the inhibition constant (Ki) turned out to be 0.0307 µM.
In the same order, the values of `O=C(N[C@H]1CC[C@H](CCN2CCC(c3cccc4c3CCO4)CC2)CC1)c1ccc2c(c1)OCO2` [Example 79, Benzo[1,3]dioxole-5-carboxylic acid trans-(4-{2-[4-(2,3-dihydro-benzofuran-4-yl)-piperidin-1-yl]-ethyl}-cyclohexyl)-amide] are 233 °C, 0.0035 µM, 0.809 µM and 0.023 µM.
For the molecule `O=C(CC1COC1)N[C@H]1CC[C@H](CCN2CCC(c3cccc4c3CCO4)CC2)CC1` [Example 80, trans-N-(4-{2-[4-(2,3-Dihydro-benzofuran-4-yl)-piperidin-1-yl]-ethyl}-cyclohexyl)-2-oxetan-3-yl-acetamide], the melting point worked out at 197 °C. Moreover, the inhibitory constant (Ki) at human D3 receptor is 0.00427 µM. Moreover, the inhibition constant (Ki) on human D2 receptor came to 0.197 µM. In addition, the inhibition constant Ki at human 5-HT2A receptor is 0.0555 µM.
In the same order, the values of `CC[C@@H](O)CC(=O)N[C@H]1CC[C@H](CCN2CCC(c3cccc4c3CCO4)CC2)CC1` [Example 81, (R)-3-Hydroxy-pentanoic acid trans-(4-{2-[4-(2,3-dihydro-benzofuran-4-yl)-piperidin-1-yl]-ethyl}-cyclohexyl)-amide] are 201 °C, 0.01 µM, 0.356 µM and 0.123 µM.
`COC(CC(=O)N[C@H]1CC[C@H](CCN2CCC(c3cccc4c3CCO4)CC2)CC1)OC` [Example 82, trans-N-(4-{2-[4-(2,3-Dihydro-benzofuran-4-yl)-piperidin-1-yl]ethyl}-cyclohexyl)-3,3-dimethoxy-propionamide] yielded a melting point of 240 °C. The Ki at human D3 receptor worked out at 0.00478 µM. Further, at human D2 receptor, the inhibitory constant (Ki) was determined as 0.366 µM. For the same molecule, on human 5-HT2A receptor, the Ki is 0.0699 µM.
In the same order, the values of `CN(C)C(=O)N[C@H]1CC[C@H](CCN2CCC(c3cccc4c3CCO4)CC2)CC1` [Example 83, trans-3-(4-{2-[4-(2,3-Dihydro-benzofuran-4-yl)-piperidin-1-yl]-ethyl}-cyclohexyl)-1,1-dimethyl-urea] are 260 °C, 0.0442 µM, 0.0699 µM and 0.121 µM.
On the same counts, the results for `CC(C)=CC(=O)N[C@H]1CC[C@H](CCN2CCC(c3cccc4c3CCO4)CC2)CC1` [Example 84, 3-Methyl-but-2-enoic acid trans-(4-{2-[4-(2,3-dihydro-benzofuran-4-yl)-piperidin-1-yl]-ethyl}-cyclohexyl)-amide] are 177 °C, 0.00636 µM, 0.0739 µM and 0.0598 µM.
Consider `C/C=C/CC(=O)N[C@H]1CC[C@H](CCN2CCC(c3cccc4c3CCO4)CC2)CC1` [Example 85, (E)-Pent-3-enoic acid trans-(4-{2-[4-(2,3-dihydro-benzofuran-4-yl)-piperidin-1-yl]-ethyl}-cyclohexyl)-amide], for which the melting point was determined as 196 °C. Besides, on human D3 receptor, the Ki was 0.00579 µM. Further, the inhibition constant (Ki) on human D2 receptor was found to be 0.438 µM. Also, on human 5-HT2A receptor, the inhibition constant (Ki) was 0.0773 µM.
